Measurements from patent US8975406B2, “Compound useful for the treatment of degenerative and inflammatory diseases” (Galapagos N.V., priority 2011, dated 2015).

What was measured:
Type in all cases: biochemical
[1] = target: T1, Recombinant human JAK1 catalytic domain (Homo sapiens, UniProt P23458); assay: JAK1 assay polyGT substrate; conditions: 33P-gamma-ATP filter assay, 2 μM ATP
T1 construct: catalytic domain (amino acids 866-1154; catalog number PV4774); purchased Invitrogen PV4774
Experimental: Recombinant human JAK1 catalytic domain (amino acids 866-1154; catalog number PV4774) was purchased from Invitrogen. 25 ng of JAK1 was incubated with 6.25 μg polyGT substrate (Sigma catalog number P0275) in kinase reaction buffer (15 mM Hepes pH7.5, 0.01% Tween20, 10 mM MgCl2, 2 μM non-radioactive ATP, 0.25 μCi ^33P-gamma-ATP (Perkin Elmer, catalog number NEG602K001MC) final concentrations) with or without 5 μL containing test compound or vehicle (DMSO, 1% final concentration), in a total volume of 25 μL, in a polypropylene 96-well plate (Greiner, V-bottom). After 75 min at 30° C., reactions were stopped by adding of 25 μL/well of 150 mM phosphoric acid. All of the terminated kinase reaction was transferred to prewashed (75 mM phosphoric acid) 96 well filter plates (Perkin Elmer catalog number 6005177) using a cell harvester (Perkin Elmer). Plates were washed 6 times with 300 μL per well of a 75 mM phosphoric acid solution and the bottom of the plates was sealed. 40 μL/well of Microscint-20 was added, the top of the plates was sealed and readout was performed using the Topcount (Perkin Elmer). Kinase activity was calculated by subtracting counts per min (cpm) obtained in the presence of a positive control inhibitor (10 μM staurosporine) from cpm obtained in the presence of vehicle. The ability of a test compound to inhibit this activity was determined as: Percentage inhibition=((cpm determined for sample with test compound present−cpm determined for sample with positive control inhibitor)divided by(cpm determined in the presence of vehicle−cpm determined for sample with positive control inhibitor))*100.
(§1) Dose dilution series were prepared for the compounds enabling the testing of dose-response effects in the JAK1 assay and the calculation of the IC50 for each compound. Each compound was routinely tested at concentration of 20 μM followed by a ⅓ serial dilution, 8 points (20 μM-6.67 μM-2.22 μM-740 nM-247 nM-82 nM-27 nM-9 nM) in a final concentration of 1% DMSO. When potency of compound series increased, more dilutions were prepared and/or the top concentration was lowered (e.g. 5 μM, 1 μM).

[2] = target: T2, Recombinant human JAK2 catalytic domain (Homo sapiens, UniProt O60674); assay: JAK2 assay polyGT substrate; conditions: 33P-gamma-ATP filter assay, 1 μM ATP
T2 construct: catalytic domain (amino acids 808-1132; catalog number PV4210); GST; purchased Invitrogen PV4210
Experimental: Recombinant human JAK2 catalytic domain (amino acids 808-1132; catalog number PV4210) was purchased from Invitrogen. 0.05 mU of JAK2 was incubated with 2.5 μg polyGT substrate (Sigma catalog number P0275) in kinase reaction buffer (10 mM MOPS pH 7.5, 0.5 mM EDTA, 0.01% Brij-35, 1 mM DTT, 15 mM MgAc, 1 μM non-radioactive ATP, 0.25 μCi ^33P-gamma-ATP (Perkin Elmer, catalog number NEG602K001MC) final concentrations) with or without 5 μL containing test compound or vehicle (DMSO, 1% final concentration), in a total volume of 25 μL, in a polypropylene 96-well plate (Greiner, V-bottom). After 90 min at 30° C., reactions were stopped by adding of 25 μL/well of 150 mM phosphoric acid. All of the terminated kinase reaction was transferred to prewashed (75 mM phosphoric acid) 96 well filter plates (Perkin Elmer catalog number 6005177) using a cell harvester (Perkin Elmer). Plates were washed 6 times with 300 μL per well of a 75 mM phosphoric acid solution and the bottom of the plates was sealed. 40 μL/well of Microscint-20 was added, the top of the plates was sealed and readout was performed using the Topcount (Perkin Elmer). Kinase activity was calculated by subtracting counts per min (cpm) obtained in the presence of a positive control inhibitor (10 μM staurosporine) from cpm obtained in the presence of vehicle. The ability of a test compound to inhibit this activity was determined as: Percentage inhibition=((cpm determined for sample with test compound present−cpm determined for sample with positive control inhibitor)divided by(cpm determined in the presence of vehicle−cpm determined for sample with positive control inhibitor))*100.
as §1, with “JAK2” for “JAK1”

[3] = target: T3, JAK3 (Homo sapiens, UniProt P52333); assay: JAK3 Ki determination assay; conditions: Lineweaver-Burk plot, polyGT substrate, varying ATP
T3 construct: catalytic domain (amino acids 795-1124; catalog number 08-046); purchased Carna Biosciences 08-046
Experimental: For the determination of Ki, different amounts of compound are mixed with the enzyme and the enzymatic reaction is followed as a function of ATP concentration. The Ki is determined by means of double reciprocal plotting of Km vs compound concentration (Lineweaver-Burk plot). JAK3 (Carna Biosciences, 08-046) was used at a final concentration of 20 ng/ml. The substrate was Poly(Glu,Tyr)sodium salt (4:1), MW 20 000-50 000 (Sigma, P0275) The reaction was performed in 25 mM Tris pH 7.5, 0.01% Triton X-100, 0.5 mM EGTA, 2.5 mM DTT, 0.5 mM Na3VO4, 5 mM b-glycerolphosphate, 10 mM MgCl2 with varying concentrations of ATP and compound and stopped by addition of 150 mM phosphoric acid. Measurement of incorporated phosphate into the substrate polyGT was done by loading the samples on a filter plate (using a harvester, Perkin Elmer) and subsequent washing. Incorporated ^33P in polyGT is measured in a Topcount scintillation counter after addition of scintillation liquid to the filter plates (Perkin Elmer).

T2 sequence (O60674 808-1132): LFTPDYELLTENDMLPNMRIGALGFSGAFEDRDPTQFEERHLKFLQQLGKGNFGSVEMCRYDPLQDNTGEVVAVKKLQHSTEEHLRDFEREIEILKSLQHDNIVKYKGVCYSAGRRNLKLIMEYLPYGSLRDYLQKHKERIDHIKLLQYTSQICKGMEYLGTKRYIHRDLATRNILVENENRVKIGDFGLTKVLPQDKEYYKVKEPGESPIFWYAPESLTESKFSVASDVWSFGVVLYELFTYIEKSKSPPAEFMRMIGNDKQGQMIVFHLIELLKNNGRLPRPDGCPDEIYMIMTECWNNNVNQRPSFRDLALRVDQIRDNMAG
T1 sequence (P23458 866-1154): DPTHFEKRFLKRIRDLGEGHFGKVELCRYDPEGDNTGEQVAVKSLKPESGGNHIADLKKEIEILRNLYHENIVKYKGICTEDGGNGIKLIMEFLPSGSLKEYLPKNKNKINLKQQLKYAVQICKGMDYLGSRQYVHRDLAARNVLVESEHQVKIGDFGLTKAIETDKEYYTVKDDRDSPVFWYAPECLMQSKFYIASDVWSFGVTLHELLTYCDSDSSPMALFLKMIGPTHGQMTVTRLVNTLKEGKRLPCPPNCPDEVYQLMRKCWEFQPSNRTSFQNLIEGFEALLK
T3 sequence (P52333 795-1124): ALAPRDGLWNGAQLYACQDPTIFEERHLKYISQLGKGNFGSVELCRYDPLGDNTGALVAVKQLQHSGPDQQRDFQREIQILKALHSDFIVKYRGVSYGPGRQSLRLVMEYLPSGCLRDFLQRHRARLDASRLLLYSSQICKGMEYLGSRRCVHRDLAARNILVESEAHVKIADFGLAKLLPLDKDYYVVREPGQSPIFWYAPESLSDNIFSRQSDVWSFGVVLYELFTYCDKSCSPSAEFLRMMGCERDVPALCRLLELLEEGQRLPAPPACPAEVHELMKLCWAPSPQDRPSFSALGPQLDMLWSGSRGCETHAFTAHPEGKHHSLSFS

| Structure (SMILES) | IC50 [1] | IC50 [2] | Ki [3] |
| --- | --- | --- | --- |
| O=C(Nc1cc2c(-c3ccc(OCc4ccccc4)cc3)cccn2n1)C1CC1 [Compound 2, N-(4-(4-(benzyloxy)phenyl)pyrazolo[1,5-a]pyridin-2-yl)cyclopropanecarboxamide] | 0.01 to 100 nM | 101 to 500 nM |  |
| COc1ccc(-c2cccn3nc(NC(=O)C4CC4)cc23)cc1 [Compound 1, N-(4-(4-methoxyphenyl)pyrazolo[1,5-a]pyridin-2-yl)cyclopropanecarboxamide] | 0.01 to 100 nM | 0.01 to 100 nM |  |
| O=C(Nc1cc2c(-c3ccc4[nH]ccc4c3)cccn2n1)C1CC1 [Compound 4, N-(4-(1H-indol-5-yl)pyrazolo[1,5-a]pyridin-2-yl)cyclopropanecarboxamide] | 0.01 to 100 nM | 0.01 to 100 nM |  |
| O=C(Nc1cc2c(-c3ccc4c(ccn4Cc4ccccc4)c3)cccn2n1)C1CC1 [Compound 3, N-(4-(1-benzyl-1H-indol-5-yl)pyrazolo[1,5-a]pyridin-2-yl)cyclopropanecarboxamide] | 0.01 to 100 nM | 101 to 500 nM |  |

Continued, values first:

| IC50 [1] | IC50 [2] | Ki [3] | Structure (SMILES) |
| --- | --- | --- | --- |
| > 1000 nM | > 1000 nM |  | COc1ccc(-c2cccn3nc(NC(=O)C4CC4)c(-c4ccccc4)c23)cc1 [Compound 7, N-(4-(4-methoxyphenyl)-3-phenylpyrazolo[1,5-a]pyridin-2-yl)cyclopropanecarboxamide] |
|  |  | 227 nM | CC(=O)Nc1cc2c(-c3ccc(CN4CCN(S(C)(=O)=O)CC4)c(F)c3)cccn2n1 [Compound 21] |
| 0.01 to 100 nM | 0.01 to 100 nM |  | O=C(NCCOc1ccccc1)c1ccc(-c2cccn3nc(NC(=O)C4CC4)cc23)cc1 [Compound 6, 4-(2-(cyclopropanecarboxamido)pyrazolo[1,5-a]pyridin-4-yl)-N-(2-phenoxyethyl)benzamide] |
| 0.01 to 100 nM | 0.01 to 100 nM |  | O=C(Nc1cc2c(-c3ccc(OCc4cccnc4)cc3)cccn2n1)C1CC1 [Compound 8, N-(4-(4-(pyridin-3-ylmethoxy)phenyl)pyrazolo[1,5-a]pyridin-2-yl)cyclopropanecarboxamide] |
| 0.01 to 100 nM | 0.01 to 100 nM |  | O=C(NCCc1ccccc1)c1ccc(-c2cccn3nc(NC(=O)C4CC4)cc23)cc1 [Compound 5, 4-(2-(cyclopropanecarboxamido)pyrazolo[1,5-a]pyridin-4-yl)-N-phenethylbenzamide] |
